Structures are written as SMILES. Numbered stars: 1 amine (or outer) side, 2 acyl side, 3 side chain; on linkers, the order of the positions; unused ones are H or OH. Peptide text beside a SMILES is read from it. * marks the point of attachment. AMC = Cc1cc(=O)oc2cc(N*)ccc12; Cbz = O=C(OCc1ccccc1)*; Boc = CC(C)(C)OC(=O)*; CO = O=C([*:1])[*:2]

This passage reports Km and IC50 results from paper PMC12169749, “Isolation, biochemical characterization, and primary structure and active site determination of Dioscorea opposita (‘Nagaimo’) oligopeptidase B” (Biochemistry and Biophysics Reports, 2025).

One assay deals with T1, oligopeptidase B (OPB); Nagaimo protease.
T1 construct: native, purified from tubers; monomer, 75 kDa by gel filtration, 81 kDa by reducing SDS-PAGE; internal tryptic peptide SAGGLLMGAVLNMR
Briefly: fluorometric AMC release, Lineweaver-Burk. The conditions noted are these: Tris-HCl pH 8.0, 37 °C. The format is biochemical, Dioscorea polystachya. The source says:
fluorometric AMC release, Lineweaver-Burk on oligopeptidase B (OPB); Nagaimo protease
For `Cc1cc(=O)oc2cc(NC(=O)[C@H](CCCNC(=N)N)NC(=O)c3ccccc3)ccc12` [Bz-Arg-MCA], the Km (in general, the concentration of substrate that gives half-maximal velocity) worked out at 10 µM.
Take `Cc1cc(=O)oc2cc(NC(=O)[C@H](CCCNC(=N)N)NC(=O)[C@H](Cc3ccccc3)NC(=O)[C@@H]3CCCN3)ccc12` [Pro-Phe-Arg-MCA] (H-Pro-Phe-Arg-{AMC}): the Km is 10 µM.
On to `Cc1cc(=O)oc2cc(NC(=O)[C@H](CCCCN)NC(=O)[C@H](CC(C)C)NC(=O)[C@@H](NC(=O)OC(C)(C)C)C(C)C)ccc12` [Boc-Val-Leu-Lys-MCA] (Boc-Val-Leu-Lys-{AMC}), for which the Km worked out at 10 µM.
With `Cc1cc(=O)oc2cc(NC(=O)[C@H](CCCNC(=N)N)NC(=O)[C@H](CCCNC(=N)N)NC(=O)[C@H](CCC(N)=O)NC(=O)OC(C)(C)C)ccc12` [Boc-Gln-Arg-Arg-MCA] (Boc-Gln-Arg-Arg-{AMC}), the Km turned out to be 15 µM.
For `Cc1cc(=O)oc2cc(NC(=O)[C@H](CCCNC(=N)N)NC(=O)[C@@H]3CCCN3C(=O)[C@@H](NC(=O)OC(C)(C)C)C(C)C)ccc12` [Boc-Val-Pro-Arg-MCA] (Boc-Val-Pro-Arg-{AMC}), the Km amounted to 12.5 µM.
On to `Cc1cc(=O)oc2cc(NC(=O)[C@H](CCCNC(=N)N)NC(=O)[C@@H](NC(=O)[C@@H](NC(=O)OCc3ccccc3)C(C)C)C(C)C)ccc12` [Z-Val-Val-Arg-MCA] (Cbz-Val-Val-Arg-{AMC}), for which the Km was 10 µM.
For the molecule `Cc1cc(=O)oc2cc(NC(=O)[C@H](CCCNC(=N)N)NC(=O)[C@@H]3CCCN3C(=O)CNC(=O)OCc3ccccc3)ccc12` [Z-Gly-Pro-Arg-MCA] (Cbz-Gly-Pro-Arg-{AMC}), the Km turned out to be 11.8 µM.
On to `Cc1cc(=O)oc2cc(NC(=O)[C@H](CCCNC(=N)N)NC(=O)[C@H](Cc3ccccc3)NC(=O)OCc3ccccc3)ccc12` [Z-Phe-Arg-MCA] (Cbz-Phe-Arg-{AMC}), for which the Km was found to be 11 µM.
Regarding `Cc1cc(=O)oc2cc(NC(=O)[C@H](CCCCN)NC(=O)[C@H](CCCCN)NC(=O)[C@H](CCC(=O)O)NC(=O)OC(C)(C)C)ccc12` [Boc-Glu-Lys-Lys-MCA] (Boc-Glu-Lys-Lys-{AMC}), the Michaelis-Menten constant (Km) is 5 µM.
Still for that read-out and setting: the same measure for `Cc1cc(=O)oc2cc(NC(=O)[C@H](CCCNC(=N)N)NC(=O)[C@H](CCCNC(=N)N)NC(=O)OCc3ccccc3)ccc12` [Z-Arg-Arg-MCA] (Cbz-Arg-Arg-{AMC}): 10 µM.
For the molecule `Cc1cc(=O)oc2cc(NC(=O)[C@@H](N)CCCNC(=N)N)ccc12` [Arg-MCA], the Km is 17.9 µM.
For the molecule `Cc1cc(=O)oc2cc(NC(=O)[C@H](CCCNC(=N)N)NC(=O)[C@H](CC(C)C)NC(=O)OCc3ccccc3)ccc12` [Z-Leu-Arg-MCA], the Km was found to be 12.5 µM.

The target of another assay is T1, oligopeptidase B (OPB); Nagaimo protease. Briefly: fluorometric AMC release, inhibitor titration. The format is biochemical, Dioscorea polystachya. Conditions: 100 μM Bz-Arg-MCA, 50 mM Tris-HCl pH 8.0, 10 min preincubation at 23 °C, assay 37 °C. The source says: fluorometric AMC release, inhibitor titration on oligopeptidase B (OPB); Nagaimo protease
Take `CC(=O)N[C@@H](CC(C)C)C(=O)N[C@@H](CC(C)C)C(=O)N[C@H](C=O)CCCNC(=N)N` [Leupeptin]: inhibition was half-maximal at 120 nM (IC50). That is a sub-micromolar value.
In the case of `CC(C)[C@H](NC(=O)[C@H](CCCNC(=N)N)NC(=O)N[C@@H](Cc1ccccc1)C(=O)O)C(=O)N[C@H](C=O)CCCNC(=N)N` [Antipain] ({Phe-CO}-Arg-Val-Arg-aldehyde), inhibition was half-maximal at 210 nM (IC50). Against the preceding molecule, the IC50 is about 1.8-fold higher.

The assay is the same for the next values; noted with them: 100 μM Bz-Arg-MCA, 50 mM Tris-HCl pH 8.0, 10 min preincubation at 23 °C, assay 37 °C; covalent.
As to `Cc1ccc(S(=O)(=O)N[C@@H](CCCCN)C(=O)CCl)cc1` [TLCK], half-maximal inhibition (IC50) required 70 nM. In other words, the double-digit nanomolar range.
For `O=c1oc(Cl)c(Cl)c2ccccc12` [DCI, 3,4-dichloroisocoumarin], inhibition was half-maximal at 30000 nM (IC50).
Turning to `NCCc1ccc(S(=O)(=O)F)cc1` [AEBSF, 4-(2-aminoethyl)-benzenesulfonyl fluoride], it took 700 nM to reach half-maximal inhibition (IC50).

The same assay, now with this note: 100 μM Bz-Arg-MCA, 50 mM Tris-HCl pH 8.0, 10 min preincubation at 23 °C, assay 37 °C; covalent, cysteine-directed.
For `CCN1C(=O)C=CC1=O` [NEM, N-ethylmaleimide], the IC50 (commonly the midpoint of a concentration-inhibition curve) came out at 880000 nM.
